Results published in patent US20240425865A1, “METHODS FOR TREATING CELLULAR INFLAMMATION INDUCED BY AFB1” (priority 2023, published 2024).

Experiments:
RelA [1] = assay: Western blot of RelA in MPC-5 cells treated with AFB1; assay type: cell-based
Procedure: To investigate whether RelA is involved in the reduction of the expression level of miR-9 in glomerular podocytes by AFB1, relative protein expression levels of RelA in glomeruli at 0, 2, and 4 weeks treated with AFB1 of 0.75 mg/kg, and MPC-5 cells treated with AFB1 of 5, 10, 20 uM were detected, respectively, by adopting a Western blot manner.

miR-9 [2] = settings: mouse, in vivo, 0.75 mg/kg
RelA / TRIM7 = RelA / TRIM7 (Mus musculus, UniProt Q04207); assay type: cell-based
RelA / TRIM7, sequence (Q04207 whole entry, looked up): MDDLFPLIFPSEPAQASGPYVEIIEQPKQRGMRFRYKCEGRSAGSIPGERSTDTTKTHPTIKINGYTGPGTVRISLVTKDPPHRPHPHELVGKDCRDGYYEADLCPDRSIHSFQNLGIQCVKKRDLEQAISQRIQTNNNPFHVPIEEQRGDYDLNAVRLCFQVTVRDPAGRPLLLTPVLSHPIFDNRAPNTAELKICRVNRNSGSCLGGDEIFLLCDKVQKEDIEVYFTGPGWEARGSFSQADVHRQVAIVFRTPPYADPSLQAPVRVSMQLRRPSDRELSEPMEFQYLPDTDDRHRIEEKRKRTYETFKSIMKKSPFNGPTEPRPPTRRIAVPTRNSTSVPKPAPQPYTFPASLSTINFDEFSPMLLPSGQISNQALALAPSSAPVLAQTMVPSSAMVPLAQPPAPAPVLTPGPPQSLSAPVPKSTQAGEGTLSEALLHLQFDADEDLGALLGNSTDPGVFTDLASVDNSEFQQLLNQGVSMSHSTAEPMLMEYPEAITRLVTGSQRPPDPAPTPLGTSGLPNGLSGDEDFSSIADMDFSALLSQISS

RelA / miR-9 promoter = assay type: cell-based
RelA [3] = biological target: RelA (Mus musculus, UniProt Q04207); assay: IP-MS of proteins interacting with RelA in MPC-5 cells; assay type: cell-based
RelA (Mus musculus, UniProt Q04207), sequence (Q04207 whole entry, looked up): as above
Procedure: For the analysis of RelA-binding proteins, IP-MS was used to detect proteins interacting with RelA. After incubating THE MPC-5 cells with RelA antibody overnight at 4° C., MPC-5 lysates were mixed with Protein A/G agarose beads (Amersham Biosciences) and then sodium dodecyl sulfate-polyacrylamide gel electrophoresis (SDS-PAGE) analysis and Caumas blue staining were performed for isolation of target proteins. Then, protein samples were sent to Suzhou Mass-elife Biotechnology Co. Ltd (Suzhou, China) for further analysis. For liquid chromatography-mass spectrometry (LC-MS) analysis, proteins were re-solubilized in a mixture of acetonitrile and water, and sample data was analyzed using an ultra-high-performance liquid chromatography (UHPLC) system coupled to a high-resolution mass spectrometer in Mass-elife Biotech Co. Ltd. of Suzhou (Suzhou, China). Identified proteins were analyzed for abundance using Byonic 2.13.17 (Protein Metrics, California, USA) to retrieve MS raw files on the uniport human protein database.

RelA [4] = settings: mouse, in vivo, 0.75 mg/kg
miR-9 [5] = assay: qRT-PCR of miR-9 in MPC-5 treated with AFB1; assay type: cell-based
Procedure: • (1) glomeruli (n=6) were treated with AFB1 of 0.75 mg/kg at 0, 2, and 4 weeks; • (2) MPC-5 (n=6) was treated with AFB1 of 5, 10, and 20μ M; • (3) Relative expression levels of miR-9 in the glomeruli treated with (1) and in the MPC-5 treated with (2) were detected by adopting a qRT-PCR manner, respectively. u6 RNA was used as an internal reference for miRNA, a sequence of a forward primer of U6 gene was shown in SEQ ID NO.1 in Table 1, and a sequence of a reverse primer of U6 gene was shown in SEQ ID NO.2. A sequence of a forward primer of miR-9 was shown in SEQ ID NO.3, a sequence of a reverse primer of miR-9 was shown in SEQ ID NO.4, and a sequence of a primer of a stem-loop sequence that is used to increase a length of a miR-9 reverse transcription product was shown in SEQ ID No.45.

3′-UTR of CXCR4 gene = assay: luciferase reporter (pMIR) with CXCR4 3′-UTR, co-transfection in MPC-5 cells; assay type: cell-based; settings: FIG. 1C
Description: To validate the binding of miR-9 to the CXCR4 gene, 3′-UTR targeting sequences of a wild-type CXCR4 gene and a mutant-type CXCR4 gene (target site ACCAAAG was mutated to ACGGCGC) were constructed into a luciferase reporter vector pMIR to obtain recombinant luciferase reporter vectors of the wild-type and the mutant-type. Subsequently, miR-9 and negative control miRNAs (a sequence of a primer as shown in SEQ ID NO.7 and SEQ ID NO.8) were co-transfected with the recombinant luciferase reporter vector of the wild-type or the mutant type into MPC-5 cells, and results were as shown in FIG. 1C. […] The control miRNAs were unable to targetedly bind to either the 3′-UTR of the wild-type CXCR4 or the 3′-UTR of the mutant-type CXCR4, and the fluorescence values were […].

glomeruli = assay: rAAV9-CAG-GFP-miR-9 transfection of AFB1-treated mouse, glomeruli readouts; assay type: in vivo; settings: miR-9 increased via rAAV9-CAG-GFP-miR-9
Procedure: Relevant agents include fluorescently labeled Gr-1 antibody (CST), fluorescently labeled IFN-γ antibody (CST) or CD86 antibody (fluorescent secondary antibody: goat anti-rabbit IgG) (Abcam) and CD68 antibody (fluorescently secondary antibody: goat anti-rabbit IgG) (Abcam), and the rest of the same agents as above.
To understand the ability of miR-9 in down-regulating the CXCR4/TXNIP/NLRP3 inflammatory vesicle pathway during podocytes inflammation induced by AFB1, a 4-week-old mouse was treated with AFB1 of 0.75 mg/kg, and rAAV9-CAG-GFP-miR-9 or CAG-GFP luciferase control vector was transfected into the treated mouse, and an expression level of miR-9 in glomeruli after transfection was detected by qRT-PCR.

Substance | p-RelA/RelA in MPC-5 cells (RelA [1]) | expression level of miR-9 in glomeruli (miR-9 [2]) | binding of RelA and TRIM7 (RelA / TRIM7) | expression level of RelA protein (RelA / TRIM7) | ubiquitination of RelA (RelA / TRIM7) | RelA binding in the miR-9 promoter region (RelA / miR-9 promoter) | TRIM7 among RelA-interacting proteins (RelA [3]) | p-RelA/RelA in glomeruli (RelA [4]) | expression level of miR-9 in cells (MPC-5) (miR-9 [5]) | luciferase fluorescence values, wild-type CXCR4 3′-UTR reporter (3′-UTR of CXCR4 gene; co-transfected into MPC-5 cells) | luciferase fluorescence values, mutant-type CXCR4 3′-UTR reporter (3′-UTR of CXCR4 gene; target site ACCAAAG mutated to ACGGCGC, MPC-5 cells) | secretion of IL-1β in glomeruli (glomeruli; AFB1-treated mouse, ELISA) | secretion of IL-6 in glomeruli (glomeruli; AFB1-treated mouse, ELISA) | secretion of TNF-α in glomeruli (glomeruli; AFB1-treated mouse, ELISA) | inflammatory cell infiltration in glomeruli (glomeruli; AFB1 for 4 weeks, HE staining and flow cytometry)
Aflatoxin B1 [AFB1] | significant reduction | significantly reduced | promoted the binding | down-regulated | increased the ubiquitination | reduced RelA binding | significantly enriched | significant reduction | significantly reduced |  |  |  |  |  | 
miR-9: mmu-miR-9-5p MIMAT0000142; nucleotide sequence shown in SEQ ID No. 5 (UCUUUGGUUAUCUAGCUGUAUGA; chemistry not given here) |  |  |  |  |  |  |  |  |  | relative decrease | unchanged | decreased secretion | decreased secretion | decreased secretion | attenuated inflammatory cell infiltration
